In publication PMC2841147, “The inhaled phosphodiesterase 4 inhibitor GSK256066 reduces allergen challenge responses in asthma” (Respiratory Research, 2010):
Read-outs that look alike come from different tables or passages of the source.

Assays:
PDE4 = settings: cited from earlier work
[1] = system: steroid naive atopic asthmatics; test: Inhaled allergen challenge (EAR and LAR) after 7 days treatment; assay type: in vivo, human; settings: inhaled 87.5 μg once daily for 7 days
Method: (§1) This was a two centre, double-blind, randomised, placebo controlled, cross-over study. Eligible subjects were randomised to receive GSK256066 87.5 μg or matching placebo using an Accuhaler™ once daily for 7 days - see Fig 1. The washout period was 14 - 21 days between treatment periods. Dosing was performed under supervision at the sites on Day 1 and Day 7. On days 2-6 subjects were instructed to take the study medication at the same time of day, and were required to complete a diary card to document the time that medication was taken. Heart rate, blood pressure, ECGs, FEV1 and exhaled nitric oxide (FeNO) were measured pre-dose on days 1 and 7, and at 1 hr post-dose. On day 7, an inhaled allergen challenge was subsequently performed after the 1 hour post-dose FEV1 and FeNO measurements. Methacholine challenge was then performed at 24 hours post allergen challenge. Adverse events and beta agonist use were monitored throughout the study with the aid of diary cards.
Bronchial challenges were performed as we have previously described using a Mefar Dosimeter (Mefar-Bologna). Allergen for skin prick tests (Soluprick SQ, Alk Abelló (UK) Ltd) was stored at 4°C; each subject was assessed for sensitivity to house dust mite, cat, grass pollen, and positive and negative controls. The allergen for inhalation was selected according to the largest skin test wheal (positive >3 mm) and clinical history. Fresh solutions of allergen were made up in 0.9% saline in doubling concentrations from 250 SQ-U/ml to 32 000 SQ-U/ml. At screening, incremental doses of allergen were inhaled until an early asthmatic response (EAR) was observed, defined as a fall in FEV1 of ≥ 20% from the post saline value, on at least one occasion, between 5 and 30 minutes after the final concentration of allergen. The late asthmatic response (LAR) was defined as a fall in FEV1 of ≥ 15% from the post saline value, on at least three occasions, two of which must be consecutive, between 4 and 10 hours after the final concentration of allergen. During the treatment periods, the total dose of allergen required to cause an EAR and LAR was administered as a single bolus dose.
Minimum LAR was derived as the minimum FEV1 value over 4-10 hrs post allergen challenge. Minimum EAR was derived as the minimum FEV1 over 0-2 hrs post allergen challenge. Weighted mean LAR and EAR endpoints were derived by calculating the AUC over the relevant time interval using the linear trapezoidal rule and dividing by the time interval. […] Day 7 FEV1 data (pre-dose and 1 h post-dose) were also analysed using a mixed effects model, adjusting for the fixed effects treatment, period and Day 1 pre-dose FEV1 and the random effect subject. […]

[2] = Plasma pharmacokinetics after inhalation (HPLC/MS/MS); assay type: in vivo, human; settings: for Tlast / Tmax: median (range); for AUC(0-t): 87.5 ug
Method: On days 1 and 7, blood samples were collected at pre-dose, 10 min, 30 min, 45 min and 1, 2, 3, 4, 6, 8, 10, 11, 12 and 24 hrs post dose for measurement of the levels of GSK256066 in plasma. […] These pharmacokinetic analyses were performed by protein precipitation, followed by HPLC/MS/MS. The lower limit of quantification (LLOQ) for GSK256066 and GSK614917 was 5 pg/mL, with an upper limit of quantification of 2000 pg/mL
Values for the following pharmacokinetic were estimated directly from raw plasma concentration data: maximum plasma concentration (Cmax), time of maximum observed concentration (Tmax), and time of the last observable concentration (Tlast). Area under the plasma concentration-time curve from time zero to Tlast (AUC (0-t)) was estimated for subjects with at least 3 consecutive observable concentration values with the log up/linear down trapezoidal method using Winnonlin professional version 5.2 (Pharsight Corporation, Cary, NC, USA).

[3] = system: steroid naive atopic asthmatics; test: Exhaled nitric oxide (FeNO); assay type: in vivo, human; settings: for Exhaled nitric oxide: mean
Method: as §1
FeNO was measured using the Ecomedics AG analyser CLD 88 at a flow of 50 ml/s. Three acceptable readings were recorded from each subject and the mean was used for analysis.
Minimum LAR was derived as the minimum FEV1 value over 4-10 hrs post allergen challenge. Minimum EAR was derived as the minimum FEV1 over 0-2 hrs post allergen challenge. Weighted mean LAR and EAR endpoints were derived by calculating the AUC over the relevant time interval using the linear trapezoidal rule and dividing by the time interval. The sample size was based on a power calculation using our previous allergen challenge data; in order to detect a 50% attenuation of the minimum LAR, with 90% power at the two-sided 5% significance level, 23 evaluable were required. Statistical analysis was performed on each of the absolute change from baseline LAR and EAR endpoints to compare GSK256066 with placebo. A mixed effects model was fitted with the factors treatment, period and Day 7 post-saline FEV1 as fixed effects and subject as a random effect. Absolute change from post-saline FEV1 data over planned relative time were obtained from a repeated measures statistical analysis, adjusting for the terms of period, treatment group, period-level post-saline baseline, subject-level post-saline baseline, planned relative time, treatment group by planned relative time interaction and period-level post-saline baseline by planned relative time interaction as fixed effects and subject as a random effect. Day 7 FEV1 data (pre-dose and 1 h post-dose) were also analysed using a mixed effects model, adjusting for the fixed effects treatment, period and Day 1 pre-dose FEV1 and the random effect subject. […] FeNO change from baseline ratio at all time points were analysed following a loge-transformation to compare GSK256066 with placebo. […]

[4] = system: steroid naive atopic asthmatics; test: Methacholine challenge 24 hours post allergen challenge; assay type: in vivo, human
Method: as §1, with “cards. […]” for “cards.”
Minimum LAR was derived as the minimum FEV1 value over 4-10 hrs post allergen challenge. […] Day 7 FEV1 data (pre-dose and 1 h post-dose) were also analysed using a mixed effects model, adjusting for the fixed effects treatment, period and Day 1 pre-dose FEV1 and the random effect subject. […] FeNO change from baseline ratio at all time points were analysed following a loge-transformation to compare GSK256066 with placebo. […]

[5] = system: steroid naive atopic asthmatics; test: Lung function (FEV1) pre-dose and 1 hr post-dose; assay type: in vivo, human; settings: for FEV1: mean; for FEV1 adjusted treatment difference GSK256066 vs placebo: adjusted mean (95% confidence intervals)
Method: as §1
Minimum LAR was derived as the minimum FEV1 value over 4-10 hrs post allergen challenge. Minimum EAR was derived as the minimum FEV1 over 0-2 hrs post allergen challenge. Weighted mean LAR and EAR endpoints were derived by calculating the AUC over the relevant time interval using the linear trapezoidal rule and dividing by the time interval. The sample size was based on a power calculation using our previous allergen challenge data; in order to detect a 50% attenuation of the minimum LAR, with 90% power at the two-sided 5% significance level, 23 evaluable were required. Statistical analysis was performed on each of the absolute change from baseline LAR and EAR endpoints to compare GSK256066 with placebo. A mixed effects model was fitted with the factors treatment, period and Day 7 post-saline FEV1 as fixed effects and subject as a random effect. Absolute change from post-saline FEV1 data over planned relative time were obtained from a repeated measures statistical analysis, adjusting for the terms of period, treatment group, period-level post-saline baseline, subject-level post-saline baseline, planned relative time, treatment group by planned relative time interaction and period-level post-saline baseline by planned relative time interaction as fixed effects and subject as a random effect. Day 7 FEV1 data (pre-dose and 1 h post-dose) were also analysed using a mixed effects model, adjusting for the fixed effects treatment, period and Day 1 pre-dose FEV1 and the random effect subject. Statistical analysis was performed on the log2-transformed values of the provocative concentration of methacholine required to produce a 20% reduction in FEV1 (PC20) to compare GSK256066 with placebo. A mixed effects model was fitted with the factors treatment and period treated as fixed effects and subject as a random effect. FeNO change from baseline ratio at all time points were analysed following a loge-transformation to compare GSK256066 with placebo. A mixed effects model was fitted with the fixed effects period, treatment group, subject-level loge-transformed baseline, period-level loge-transformed baseline, planned relative time, treatment group by planned relative time interaction term and period-level loge-transformed baseline by planned relative time interaction term and the random effect subject.

[6] = system: steroid naive atopic asthmatics; test: Safety and tolerability (adverse events); assay type: in vivo, human; settings: inhaled 87.5 mcg once per day for 7 days
Method: as §1

patients with COPD = system: patients with COPD; parameters: method as in PMID 19213793; settings: inhaled, after 6 weeks of treatment; cited from earlier work
[7] = parameters: method as in PMID 17192499; settings: cited from earlier work
asthmatic subjects = system: asthmatic subjects; parameters: method as in PMID 16083782; settings: orally administered; cited from earlier work

## COc1cccc(Nc2c(C(N)=O)cnc3c(C)cc(S(=O)(=O)c4cccc(C(=O)N(C)C)c4)cc23)c1 [GSK256066]
PDE4
  Affinity and binding mode at PDE4: very high affinity, slow- and tight-binding inhibitor
  Selectivity for PDE4 over other PDEs such as 1, 2, 3, 5, 6 and 7: highly selective
[1]; 0-2 hrs post allergen, p = 0.014
  EAR: inhibition of the fall in weighted mean FEV1 compared to placebo: 57.2%
[1]; 4-10 hrs post allergen, p = 0.005
  LAR: attenuation of the fall in weighted mean FEV1 compared to placebo: 34.3%
[1]; minimum FEV1 0-2 hrs post allergen, p = 0.014
  EAR: inhibition of the fall in minimum FEV1 compared to placebo: 40.9%
[1]; minimum FEV1 4-10 hrs post allergen, p = 0.007
  LAR: attenuation of the fall in minimum FEV1 compared to placebo: 26.2%
[2]; Day 1, LLOQ 5 pg/mL
  Subjects with plasma concentrations above the LLOQ: 18 out of 22
[2]; Day 1, inhaled 87.5 μg, plasma, geometric mean (CV%), N = 18
  Cmax: 18.3 (68) Pg/mL
[2]; Day 1
  Tlast: 3.0 (0.5-6.0) h
[2]; Day 1, of the 22 subjects, LLOQ 5 pg/mL
  Subjects with drug levels below the LLOQ after 4 hrs post dose: 18 subjects
[2]; Day 7, LLOQ 5 pg/mL
  Subjects with drug levels below the LLOQ after 4 hrs post dose: 10 of the 19
  Subjects with levels above the LLOQ after 12 hrs: 1 subject
  Subjects with plasma concentrations above the LLOQ: 17 out of 19
[2]; Day 7, inhaled 87.5 μg once daily, plasma, geometric mean (CV%), n = 17
  Cmax: 17.3 (63) Pg/mL
[2]; Day 7
  Tlast: 4.0 (1.0-24) h
  Tmax: 1.0 (0.17-11.0) h
[2]; days 1 and 7
  Tlast range in this study: 0.5 to 24 h
[2]; human, plasma, inhaled or intranasal, Day 1, inhaled 87.5 μg, plasma, geometric mean (CV%), N = 18
  AUC(0-t): 0.0368 ng·h/mL
[2]; human, plasma, inhaled or intranasal, Day 7, inhaled 87.5 μg once daily, plasma, geometric mean (CV%), n = 17
  AUC(0-t): 0.0648 ng·h/mL
[2]; human, plasma, inhaled or intranasal, 87.5 μg, on both days 1 and 7, inhaled, read-out: Mean Cmax
  Cmax: < 0.02 ng/mL
[2]; human, plasma, inhaled, 87.5 μg, Day 1, read-out: Tmax
  Tmax: 1 h
[3]; Day 1 Pre-dose
  Exhaled nitric oxide: 39.9 (31.0 to 51.3) ppb
[3]; Day 7 1 hr post-dose, adjusted mean (95% confidence intervals)
  Exhaled nitric oxide adjusted treatment ratio GSK256066 vs placebo: 1.03 (0.88 to 1.20)
[3]; Day 7 1 hr post-dose
  Exhaled nitric oxide: 36.1 (28.1 to 46.3) ppb
[3]; Day 7 Pre-dose
  Exhaled nitric oxide: 34.7 (26.7 to 45.0) ppb
[4]
  Methacholine PC20 doubling dose difference vs placebo, geometric mean (95% CI): -0.31 (-1.18 to 0.57)
[4]; after 7 days treatment, placebo 0.39
  Methacholine PC20: 0.31 mg/mL
[5]; Day 1 Pre-dose
  FEV1: 3.29 (2.88 to 3.69) L
[5]; Day 7 1 hr post-dose
  FEV1 adjusted treatment difference GSK256066 vs placebo: 0.09 (-0.08 to 0.27) L
  FEV1: 3.47 (3.04 to 3.90) L
[5]; Day 7 Pre-dose
  FEV1 adjusted treatment difference GSK256066 vs placebo: 0.09 (-0.03 to 0.20) L
  FEV1: 3.36 (2.94 to 3.79) L
[6]
  Nausea and/or gastro-intestinal side effects: lack of nausea and/or gastro-intestinal side effects
  Tolerability / adverse effects: well tolerated

## Cc1ccc(O)c(C(=O)N[C@H]2CC[C@@H](NC(=O)c3cc(F)cnc3Oc3ccc(F)c(F)c3)CC2)c1 [UK-500,001]
Patients with COPD
  Effect on FEV1: no effect

## O=C(Nc1c(Cl)c[n+]([O-])cc1Cl)c1ccc(OC(F)F)c(OCC2CC2)c1 [roflumilast N-Oxide]
[7]; after oral roflumilast
  Plasma levels of the active metabolite compared with roflumilast Cmax: even higher

## O=C(Nc1c(Cl)cncc1Cl)c1ccc(OC(F)F)c(OCC2CC2)c1 [roflumilast]
Asthmatic subjects
  Inhibition of the maximal fall in the EAR: 14%
  Inhibition of the maximal fall in the LAR: 33%
[7]; administered orally
  Mean Cmax: over 2,000 pg/ml
